Tests used:
Test in all cases: relative viability (nuclei count vs DMSO), 5 days (fraction); higher = more cells survive
[1] = system: H3255
Method in brief: (§1)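 Relative viability divides the nuclei count in treated wells by that in vehicle wells. Lung cancer cell lines were seeded in 1536-well plates, dosed by pin tool the next day, and fixed and stained after 5 days in one step with final 0.05% Triton X-100, 1% formaldehyde and 1 ug/ml Hoechst. Dosing was a single drug or a fixed anchor-drug dose plus five library-drug doses (not always all listed) in √10 steps, and values are medians of duplicate plates imaged at 4×.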

[2] = system: NCI-H2009
Method in brief: as §1

[3] = system: ABC-1
Method in brief: as §1

[4] = system: ChaGo-K-1
Method in brief: as §1

[5] = system: NCI-H441
Method in brief: as §1

[6] = system: CAL-12T
Method in brief: as §1

[7] = system: NCI-H322M
Method in brief: as §1

[8] = system: NCI-H1792
Method in brief: as §1

[9] = system: NCI-H2342
Method in brief: as §1

[10] = system: EKVX
Method in brief: as §1

[11] = system: NCI-H1975
Method in brief: as §1

[12] = system: NCI-H460
Method in brief: as §1

[13] = system: NCI-H2228
Method in brief: as §1

[14] = system: NCI-H1993
Method in brief: as §1

[15] = system: HCC-366
Method in brief: as §1

[16] = system: COR-L 105
Method in brief: as §1

[17] = system: SK-MES-1
Method in brief: as §1

[18] = system: NCI-H2085
Method in brief: as §1

[19] = system: NCI-H1355
Method in brief: as §1

[20] = system: EPLC-272H
Method in brief: as §1

[21] = system: HCC-827
Method in brief: as §1

[22] = system: NCI-H2087
Method in brief: as §1

Cc1csc(=NC2CCCCC2)n1/N=C/c1ccc(O)c(O)c1O [MIM1] + Cc1nc(Nc2ncc(C(=O)Nc3c(C)cccc3Cl)s2)cc(N2CCN(CCO)CC2)n1 [Dasatinib] (partner 0.075 µM)
relative viability ([1]; first compound 0.2 µM): 0.339 | relative viability ([1]; first compound 0.6325 µM): 0.343 | relative viability ([1]; first compound 2 µM): 0.334 | relative viability ([1]; first compound 6.325 µM): 0.344 | relative viability ([1]; first compound 20 µM): 0.255 | relative viability ([2]; first compound 0.2 µM): 0.303 | relative viability ([2]; first compound 0.6325 µM): 0.327 | relative viability ([2]; first compound 2 µM): 0.293 | relative viability ([2]; first compound 6.325 µM): 0.204 | relative viability ([2]; first compound 20 µM): 0.123 | relative viability ([3]; first compound 0.2 µM): 0.598 | relative viability ([3]; first compound 0.6325 µM): 0.555 | relative viability ([3]; first compound 2 µM): 0.543 | relative viability ([3]; first compound 6.325 µM): 0.299 | relative viability ([3]; first compound 20 µM): 0.248 | relative viability ([4]; first compound 0.2 µM): 0.594 | relative viability ([4]; first compound 0.6325 µM): 0.552 | relative viability ([4]; first compound 2 µM): 0.562 | relative viability ([4]; first compound 6.325 µM): 0.466 | relative viability ([4]; first compound 20 µM): 0.173 | relative viability ([5]; first compound 0.2 µM): 0.522 | relative viability ([5]; first compound 2 µM): 0.631 | relative viability ([5]; first compound 6.325 µM): 0.481 | relative viability ([5]; first compound 20 µM): 0.262 | relative viability ([6]; first compound 0.2 µM): 0.258 | relative viability ([6]; first compound 0.6325 µM): 0.38 | relative viability ([6]; first compound 2 µM): 0.215 | relative viability ([6]; first compound 6.325 µM): 0.311 | relative viability ([6]; first compound 20 µM): 0.115 | relative viability ([7]; first compound 0.2 µM): 0.265 | relative viability ([7]; first compound 0.6325 µM): 0.245 | relative viability ([7]; first compound 2 µM): 0.249 | relative viability ([7]; first compound 6.325 µM): 0.27 | relative viability ([7]; first compound 20 µM): 0.38 | relative viability ([8]; first compound 0.2 µM): 0.786 | relative viability ([8]; first compound 0.6325 µM): 0.661 | relative viability ([8]; first compound 2 µM): 0.716 | relative viability ([8]; first compound 6.325 µM): 0.757 | relative viability ([8]; first compound 20 µM): 0.808 | relative viability ([9]; first compound 0.2 µM): 0.319 | relative viability ([9]; first compound 0.6325 µM): 0.316 | relative viability ([9]; first compound 2 µM): 0.331 | relative viability ([9]; first compound 6.325 µM): 0.299 | relative viability ([9]; first compound 20 µM): 0.418 | relative viability ([10]; first compound 0.2 µM): 0.591 | relative viability ([10]; first compound 2 µM): 0.558 | relative viability ([10]; first compound 6.325 µM): 0.514 | relative viability ([10]; first compound 20 µM): 0.391 | relative viability ([11]; first compound 0.2 µM): 0.355 | relative viability ([11]; first compound 0.6325 µM): 0.377 | relative viability ([11]; first compound 2 µM): 0.346 | relative viability ([11]; first compound 6.325 µM): 0.185 | relative viability ([11]; first compound 20 µM): 0.17 | relative viability ([12]; first compound 0.2 µM): 0.508 | relative viability ([12]; first compound 0.6325 µM): 0.42 | relative viability ([12]; first compound 2 µM): 0.467 | relative viability ([12]; first compound 6.325 µM): 0.327 | relative viability ([12]; first compound 20 µM): 0.044 | relative viability ([13]; first compound 0.2 µM): 0.505 | relative viability ([13]; first compound 0.6325 µM): 0.524 | relative viability ([13]; first compound 2 µM): 0.66 | relative viability ([13]; first compound 6.325 µM): 0.205 | relative viability ([13]; first compound 20 µM): 0.0988 | relative viability ([14]; first compound 0.2 µM): 0.349 | relative viability ([14]; first compound 0.6325 µM): 0.57 | relative viability ([14]; first compound 2 µM): 0.545 | relative viability ([14]; first compound 6.325 µM): 0.484 | relative viability ([14]; first compound 20 µM): 0.411 | relative viability ([15]; first compound 0.2 µM): 0.622 | relative viability ([15]; first compound 2 µM): 0.65 | relative viability ([15]; first compound 6.325 µM): 0.388 | relative viability ([15]; first compound 20 µM): 0.0615 | relative viability ([16]; first compound 0.2 µM): 0.356 | relative viability ([16]; first compound 0.6325 µM): 0.424 | relative viability ([16]; first compound 2 µM): 0.339 | relative viability ([16]; first compound 6.325 µM): 0.29 | relative viability ([16]; first compound 20 µM): 0.292 | relative viability ([17]; first compound 0.2 µM): 0.369 | relative viability ([17]; first compound 0.6325 µM): 0.371 | relative viability ([17]; first compound 2 µM): 0.259 | relative viability ([17]; first compound 6.325 µM): 0.27 | relative viability ([17]; first compound 20 µM): 0.367 | relative viability ([18]; first compound 0.2 µM): 0.323 | relative viability ([18]; first compound 0.6325 µM): 0.251 | relative viability ([18]; first compound 2 µM): 0.261 | relative viability ([18]; first compound 6.325 µM): 0.241 | relative viability ([18]; first compound 20 µM): 0.253 | relative viability ([19]; first compound 0.2 µM): 0.746 | relative viability ([19]; first compound 0.6325 µM): 0.682 | relative viability ([19]; first compound 2 µM): 0.698 | relative viability ([19]; first compound 6.325 µM): 0.655 | relative viability ([19]; first compound 20 µM): 0.391 | relative viability ([20]; first compound 0.2 µM): 0.406 | relative viability ([20]; first compound 0.6325 µM): 0.305 | relative viability ([20]; first compound 2 µM): 0.328 | relative viability ([20]; first compound 6.325 µM): 0.312 | relative viability ([20]; first compound 20 µM): 0.0989 | relative viability ([21]; first compound 0.2 µM): 0.376 | relative viability ([21]; first compound 0.6325 µM): 0.308 | relative viability ([21]; first compound 2 µM): 0.259 | relative viability ([21]; first compound 6.325 µM): 0.348 | relative viability ([21]; first compound 20 µM): 0.488 | relative viability ([22]; first compound 0.2 µM): 0.884 | relative viability ([22]; first compound 0.6325 µM): 0.843 | relative viability ([22]; first compound 2 µM): 1.02 | relative viability ([22]; first compound 6.325 µM): 0.685 | relative viability ([22]; first compound 20 µM): 0.625

Reference: the supplement of paper PMC10307832
